In the experiment the target is T1, mouse EP2 receptor (Mus musculus, UniProt Q62053).
T1 construct: expressed in transfected cells; host or cells: CHO cells (membrane fraction)
The experiment in a line: Receptor-binding experiment (3H-PGE2 displacement) using membranes of CHO cells expressing prostanoid receptor sub-type EP2. The note with it: inhibition of 3H-PGE2 (2.5 nM) binding, CHO cell membrane fraction, room temperature 1 hour, pH 6.0; Ki=IC50/(1+([C]/Kd)). The procedure:
(i) Experiment for Receptor-Binding Using Cells Which Express Prostanoid Receptor Sub-Types
According to the method of Sugimoto et al. (J. Biol. Chem., 267, 6463-6466 (1992)), CHO cells which expressed prostanoid receptor sub-types (murine EP1, EP2, EP3α, and EP4, respectively) were prepared and used as membrane authentic samples.
A reaction solution (200 μl) containing the prepared membrane fraction (0.5 mg/ml) and ^3H-PGE2 was incubated at room temperature for 1 hour. The reaction was terminated with ice cold buffer (3 ml), and the reaction mixture was filtered under suction through a glass filter (GF/B), on which the binding ^3H-PGE2 was trapped, and the binding radioactivity was measured by means of a liquid scintillator.
The Kd value was obtained from the Scatchard plots [Ann. N.Y. Acad. Sci., 51, 660 (1949)]. Non-specific binding was obtained as the binding in the presence of an excess amount (2.5 μM) of unlabelled PGE2. Measurement of the binding inhibition for ^3H-PGE2 with the compounds of the present invention was performed by adding ^3H-PGE2 (2.5 nM) and a series of concentrations of the compound of the present invention. In this reaction, the following buffer was used in all cases. • Buffer: 10 mM potassium phosphate (pH 6.0), 1 mM EDTA, 10 mM MgCl2, and 0.1M NaCl.
Dissociation constant Ki (μM) of each compound was calculated from the following equation. […]

Structures are written as SMILES.

T1 sequence (Q62053 whole entry): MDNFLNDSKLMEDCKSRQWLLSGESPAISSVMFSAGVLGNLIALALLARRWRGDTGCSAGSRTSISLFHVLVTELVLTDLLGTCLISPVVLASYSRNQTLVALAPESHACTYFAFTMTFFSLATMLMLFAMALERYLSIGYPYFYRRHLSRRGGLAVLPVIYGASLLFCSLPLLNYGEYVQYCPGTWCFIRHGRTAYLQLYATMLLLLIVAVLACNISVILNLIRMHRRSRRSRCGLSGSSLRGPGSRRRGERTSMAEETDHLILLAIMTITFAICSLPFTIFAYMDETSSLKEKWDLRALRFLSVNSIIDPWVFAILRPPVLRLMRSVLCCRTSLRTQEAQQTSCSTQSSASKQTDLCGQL

Compound `CCCCc1ccc(C2CCC(=O)N2CCSc2nc(C(=O)O)cs2)cc1` (stereo not shown) [Example 4(1), 2-(2-(2-(4-n-butylphenyl)-5-oxopyrrolidin-1-yl)ethylthio)thiazole-4-carboxylic acid] had a Ki of 14 nM.

The record behind these values is patent US7402605B2, “8-azaprostaglandin derivative compounds and drugs containing the compounds as the active ingredient” (Ono Pharmaceutical Co., Ltd., priority 2002, dated 2008).
